Laboratory results from the supplement of paper PMC10920090.

How the values were obtained:
Details in all cases: 72 h
UT-SCC-24A [1] = experiment: drug sensitivity score (DSS), cytotoxicity CellTox Green; higher = more cytotoxic; extreme values may be limits of the assay
Procedure: (§1)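 Targeted FIMM drug screen of 23 compounds at 5 concentrations over a 10,000-fold range in 384-well plates, 1250 cells/well, 72 h at 37 °C. Read-outs were CellTiter-Glo viability and CellTox Green cytotoxicity, normalised to DMSO and benzethonium chloride controls and summarised as drug sensitivity score (DSS). Cells stably transduced with shScramble or one of two shPPFIA1 constructs (shPPFIA1_1 TRCN0000002969, shPPFIA1_2 TRCN0000342514).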

BT-474 [2] = experiment: as above
Procedure: as §1

MDA-MB-231 [3] = experiment: as above
MDA-MB-231 [4] = experiment: drug sensitivity score (DSS), cell viability CellTiter-Glo; higher = more sensitive; extreme values may be limits of the assay
UT-SCC-24A [5] = experiment: as above
Procedure: as §1

BT-474 [6] = experiment: as above
Procedure: as §1

Row | SMILES | drug sensitivity score (UT-SCC-24A [1]; shRNA: shPPFIA1_1) [DSS] | drug sensitivity score (UT-SCC-24A [1]; shRNA: shPPFIA1_2) [DSS] | drug sensitivity score (UT-SCC-24A [1]; shRNA: shScramble) [DSS] | drug sensitivity score (BT-474 [2]; shRNA: shPPFIA1_1) [DSS] | drug sensitivity score (BT-474 [2]; shRNA: shPPFIA1_2) [DSS] | drug sensitivity score (BT-474 [2]; shRNA: shScramble) [DSS] | drug sensitivity score (MDA-MB-231 [3]; shRNA: shPPFIA1_1) [DSS] | drug sensitivity score (MDA-MB-231 [3]; shRNA: shScramble) [DSS] | drug sensitivity score (MDA-MB-231 [4]; shRNA: shPPFIA1_1) [DSS] | drug sensitivity score (MDA-MB-231 [4]; shRNA: shScramble) [DSS] | drug sensitivity score (UT-SCC-24A [5]; shRNA: shPPFIA1_1) [DSS] | drug sensitivity score (UT-SCC-24A [5]; shRNA: shPPFIA1_2) [DSS] | drug sensitivity score (UT-SCC-24A [5]; shRNA: shScramble) [DSS] | drug sensitivity score (BT-474 [6]; shRNA: shPPFIA1_1) [DSS] | drug sensitivity score (BT-474 [6]; shRNA: shPPFIA1_2) [DSS] | drug sensitivity score (BT-474 [6]; shRNA: shScramble) [DSS]
1 | CC(=O)NCC(=O)N1[C@@H]2CC[C@H]1c1ccc(Nc3ncc(C(F)(F)F)c(NC4CCC4)n3)cc12 | 4.1 | 3.9 | 4.3 | 3 | 3.7 | 3.5 | 2.8 | 0 | 5.5 | 21.7 | 8 | 8.7 | 8.5 | 2.7 | 2.8 | 4.5
2 | CC(C)CC(=O)Nc1n[nH]c2c1CN(C(=O)C1CCN(C)CC1)C2(C)C | 1.9 | 1.4 | 1.2 | 0.9 | 1.1 | 0.4 | 3.2 | 0 | 1.8 | 20.1 | 8.1 | 8.5 | 5.8 | 1.2 | 1.3 | 1.5
3 | CCOc1ccn(-c2ccc(F)cc2)c(=O)c1C(=O)Nc1ccc(Oc2ccnc(N)c2Cl)c(F)c1 | 0 | 0 | 0 | 0 | 0 | 0 | 0 | 0.9 | 0 | 21 | 0 | 0 | 0 | 0 | 0 | 0
4 | O=C(Nc1ccc2[nH]nc(-c3ccncc3)c2c1)[C@@H]1CCN(CC(=O)N2CCN(c3ccc(-c4ncccn4)cc3)CC2)C1 | 21.7 | 21.1 | 11.6 | 0 | 0.2 | 0 | 6 | 10.9 | 2.1 | 10.8 | 21.3 | 20.5 | 17.3 | 0 | 0 | 0
5 | CN[C@@H](C)C(=O)N[C@H]1CN(C(=O)CC(C)C)CC[C@H]2CC[C@@H](C(=O)NC(c3ccccc3)c3ccccc3)N2C1=O [AT-406] | 7.8 | 13.5 | 5.3 | 1.3 | 1.4 | 0.2 | 32.3 | 19.8 | 17 | 3.4 | 1 | 1.9 | 0 | 0 | 0 | 0
6 | Cc1cc([C@@H](C)Nc2ccccc2C(=O)O)c2nc(N3CCOCC3)cc(=O)n2c1 [AZD-6482] | 2 | 1 | 0.8 | 0.2 | 0.1 | 0.1 | 0 | 0.9 | 4.2 | 19.8 | 2.1 | 1.9 | 1.4 | 1.5 | 1.1 | 2.1
7 | Cc1cc(C(=O)NOCCO)c(Nc2ccc(I)cc2F)n(C)c1=O [AZD-8330] | 28.4 | 27.6 | 14.2 | 0 | 0 | 0 | 15 | 20.3 | 5.5 | 21.8 | 30 | 27.6 | 23.9 | 0 | 0 | 0
8 | CN(C)C/C=C/C(=O)Nc1cc2c(Nc3ccc(F)c(Cl)c3)ncnc2cc1O[C@H]1CCOC1 [Afatinib] | 20.4 | 19.8 | 12 | 7.4 | 8.7 | 7.9 | 0 | 0 | 0.2 | 1.4 | 18.5 | 18.1 | 13.4 | 13.2 | 13.3 | 16.2
9 | Cn1c(=O)n(-c2ccc(C(C)(C)C#N)cc2)c2c3cc(-c4cnc5ccccc5c4)ccc3ncc21 [Dactolisib] | 1.3 | 0.5 | 2.3 | 0 | 0 | 0 | 0 | 0 | 0 | 4.2 | 16.2 | 17 | 18 | 7.4 | 7.4 | 11
10 | CC(=O)O[C@@]12CO[C@@H]1C[C@H](O)[C@@]1(C)C(=O)[C@H](O)C3=C(C)[C@@H](OC(=O)[C@H](O)[C@@H](NC(=O)OC(C)(C)C)c4ccccc4)C[C@@](O)([C@@H](OC(=O)c4ccccc4)[C@H]21)C3(C)C [Docetaxel] | 16.2 | 15.2 | 20.1 | 20.1 | 20.5 | 20.9 | 7.3 | 8.7 | 1.3 | 16.8 | 17.3 | 18.8 | 18.7 | 16.1 | 16.8 | 20.6
11 | C#Cc1cccc(Nc2ncnc3cc(OCCOC)c(OCCOC)cc23)c1 [Erlotinib] | 17.8 | 11.4 | 8.3 | 0.8 | 1.1 | 1.2 | 0 | 0 | 2.8 | 4 | 20.8 | 14 | 11.9 | 2.5 | 2.9 | 3.9
12 | CO[C@H]1C[C@@H]2CC[C@@H](C)[C@@](O)(O2)C(=O)C(=O)N2CCCC[C@H]2C(=O)O[C@H]([C@H](C)C[C@@H]2CC[C@@H](OCCO)[C@H](OC)C2)CC(=O)[C@H](C)/C=C(\C)[C@@H](O)[C@@H](OC)C(=O)[C@H](C)C[C@H](C)/C=C/C=C/C=C/1C [Everolimus] | 0 | 0 | 0 | 0 | 0 | 0 | 0 | 0 | 0 | 6.1 | 1.3 | 2.5 | 2.9 | 5.2 | 3.6 | 5.2
13 | O=C(NOCCO)c1ccc2cncn2c1Nc1ccc(I)cc1F [GDC-0623] | 1.8 | 0 | 0.8 | 0 | 0 | 0 | 5.2 | 11.2 | 3.7 | 18.1 | 2 | 0 | 1.8 | 0 | 0 | 0
14 | COc1cc2ncnc(Nc3ccc(F)c(Cl)c3)c2cc1OCCCN1CCOCC1 [Gefitinib] | 19.4 | 17.3 | 8.3 | 4.1 | 5.6 | 4.8 | 0 | 0 | 2.3 | 2.3 | 19.6 | 18.4 | 12.1 | 7.8 | 9.1 | 10.8
15 | COc1ccc(-c2ccc3ncc4c(c3c2)n(-c2ccc(N3CCNCC3)c(C(F)(F)F)c2)c(=O)n4C)cn1 [NVP-BGT226] | 7.9 | 6.5 | 7.8 | 2.8 | 6.2 | 4.8 | 0 | 6.4 | 0.8 | 17.3 | 19.4 | 20.4 | 20.7 | 9.6 | 11.3 | 14.2
16 | CN[C@@H](C)C(=O)N[C@H](C(=O)N1CCC[C@H]1c1nc(C(=O)c2ccc(F)cc2)cs1)C1CCCCC1 [NVP-LCL161] | 10.2 | 12.8 | 8.1 | 2.4 | 3.3 | 1.3 | – | – | – | – | 4.5 | 5.7 | 4.2 | 1 | 1.4 | 0.7
17 | O=C(NC[C@H](O)CO)c1ccncc1Nc1ccc(I)cc1F [Pimasertib] | 28.5 | 23.5 | 15.6 | 0 | 0.2 | 0 | 6.2 | 11.7 | 2.4 | 12.4 | 25.6 | 23.4 | 20.5 | 0.1 | 0.5 | 0.4
18 | COc1cc(C(=O)NC2CCN(C)CC2)c(F)cc1Nc1ncc2c(n1)N(C1CCCC1)CC(F)(F)C(=O)N2C [TAK-960] | 0 | 0 | 0 | 0 | 0 | 0 | 0 | 0.9 | 4.9 | 20.6 | 0 | 0 | 0 | 0 | 0 | 0
19 | CO[C@H]1C[C@@H]2CC[C@@H](C)[C@@](O)(O2)C(=O)C(=O)N2CCCC[C@H]2C(=O)O[C@H]([C@H](C)C[C@@H]2CC[C@@H](OC(=O)C(C)(CO)CO)[C@H](OC)C2)CC(=O)[C@H](C)/C=C(\C)[C@@H](O)[C@@H](OC)C(=O)[C@H](C)C[C@H](C)/C=C/C=C/C=C/1C [Temsirolimus] | 0 | 0 | 0 | 0 | 0 | 0 | 0 | 0 | 0 | 7.9 | 2.8 | 4.1 | 4.4 | 7.8 | 6.2 | 9.8
20 | CC(=O)Nc1cccc(-n2c(=O)n(C3CC3)c(=O)c3c(Nc4ccc(I)cc4F)n(C)c(=O)c(C)c32)c1 [Trametinib] | 18.9 | 18.4 | 7.8 | 0 | 0 | 0 | 5.3 | 12.5 | 0.7 | 12.4 | 19.6 | 18.5 | 15.4 | 0 | 0 | 0.1
21 | C[C@@H]1COC(Nc2ccc3ncnc(Nc4ccc(OCc5nccs5)c(Cl)c4)c3c2)=N1 [Varlitinib] | 10.3 | 10.1 | 4 | 3.1 | 4.5 | 3.9 | 0.2 | 0 | 1 | 21.3 | 10.7 | 11 | 9 | 8.2 | 9.3 | 10.7
22 | CCC1=C[C@@H]2CN(C1)Cc1c([nH]c3ccccc13)[C@@](C(=O)OC)(c1cc3c(cc1OC)N(C)[C@H]1[C@@](O)(C(=O)OC)[C@H](OC(C)=O)[C@]4(CC)C=CCN5CC[C@]31[C@@H]54)C2 [Vinorelbine] | 8.4 | 8.4 | 13.1 | 11.1 | 13.2 | 13.8 | 7.2 | 2.7 | 0 | 19.9 | 12 | 18 | 15.3 | 9.2 | 10 | 18.7
